The values that follow come from patent US11834460B2, “Imide-based modulators of proteolysis and associated methods of use” (YALE UNIVERSITY, priority 2018, dated 2023).

A value given as a limit tells only on which side of the number the result lay.

The subject of this experiment is c-Myc. The experiment is described as follows: c-Myc ELISA assay protocol in 22RV-1 cells. Format: cell-based, human. As to conditions: 18 h, read-out: cMyc IC50. The procedure: In each bioassay, cells were treated with varying amounts of compounds encompassed by the present disclosure, as shown in Table 1. The degradation of the following proteins were evaluated in this study: TANK-binding kinase 1 (TBK1), estrogen receptor α (ERα), bromodomain-containing protein 4 (BRD4), androgen receptor (AR), and c-Myc.
5. c-Myc ELISA Assay Protocol
22RV-1 cells were purchased from ATCC and cultured in RPMI+10% FBS media. Cells were harvested using trypsin (Gibco #25200-114), counted and seeded at 30,000 cells/well at a volume of 75 μL/well in RPMI +10% FBS media in 96-well plates. The cells were dosed with compounds diluted in 0.1% DMSO, incubated for 18 h then washed and lysed in 50 uL RIPA buffer (50 mM Tris pH8, 150 mM NaCl, 1% Tx-100, 0.1% SDS, 0.5% sodium deoxycholate) supplemented with protease and phosphatase inhibitors. The lysates were clarified at 4000 rpm at 4° C. for 10 minutes then aliquots were added into a 96-well ELISA plate of Novex Human c-myc ELISA kit from Life Technologies Catalog #KHO2041. 50 ul of c-Myc Detection antibody was added into every well, the plates incubated at room temperature for 3 hrs, then washed with ELISA wash buffer. 100 uL of the anti-rabbit IgG-HRP secondary antibody was added to each well and incubated at room temperature for 30 minutes. The plates were washed with ELISA wash buffer, 100 μL TMB added to each well, and then monitored every 5 minutes for a color change. 100 μL of stop solution is added and the plates read at 450 nm.
For orientation: ELISA stands for enzyme-linked immunosorbent assay.
As usually defined, the IC50 is the concentration needed to halve the response being measured. For `Cc1sc2c(c1C)C(c1ccc(Cl)cc1)=N[C@@H](CC(=O)N[C@@H](C)c1ccc(OCCOCCNc3cccc4c3C(=O)N(C3CCC(=O)NC3=O)C4=O)c(F)c1)c1nnc(C)n1-2` (stereo partly drawn) [Compound 48, 2-[(9S)-7-(4-chlorophenyl)-4,5,13-trimethyl-3-thia-1,8,11,12-tetraazatricyclo [8.3.0.0^2,^6]trideca-2(6),4,7,10,12-pentaen-9-yl]-N-[(1S)-1-{4-[2-(2-{[2-(2,6-dioxopiperidin-3-yl)-1,3-dioxo-2,3-dihydro-1H-isoindol-4-yl]amino}ethoxy)ethoxy]-3-fluorophenyl}ethyl]acetamide], the IC50 was below 50 nM. Turning to `Cc1sc2c(c1C)C(c1ccc(Cl)cc1)=N[C@@H](CC(=O)Nc1ccc(OCCOCCOCCOCCNc3cccc4c3C(=O)N(C3(C)CCC(=O)NC3=O)C4=O)cc1)c1nnc(C)n1-2` (stereo partly drawn) [Compound 49, 2-[(9S)-7-(4-chlorophenyl)-4,5,13-trimethyl-3-thia-1,8,11,12-tetraazatricyclo [8.3.0.0^2,^6]trideca-2(6),4,7,10,12-pentaen-9-yl]-N-[4-({1-[2-(3-methyl-2,6-dioxopiperidin-3-yl)-1,3-dioxo-2,3-dihydro-1H-isoindol-4-yl]-4,7,10-trioxa-1-azadodecan-12-yl}oxy)phenyl] acetamide], the IC50 was above 50 nM.

For the molecule `Cc1sc2c(c1C)C(c1ccc(Cl)cc1)=N[C@@H](CC(=O)Nc1ccc(OCCOCCOCCOCCNc3cccc4c3C(=O)N(C3CCC(=O)N(C)C3=O)C4=O)cc1)c1nnc(C)n1-2` (stereo partly drawn) [Compound 50, 2-[(9S)-7-(4-chlorophenyl)-4,5,13-trimethyl-3-thia-1,8,11,12-tetraazatricyclo [8.3.0.0^2,^6]trideca-2(6),4,7,10,12-pentaen-9-yl]-N-[4-({1-[2-(1-methyl-2,6-dioxopiperidin-3-yl)-1,3-dioxo-2,3-dihydro-1H-isoindol-4-yl]-4,7,10-trioxa-1-azadodecan-12-yl}oxy)phenyl] acetamide], the IC50 is above 50 nM. For `Cc1sc2c(c1C)C(c1ccc(Cl)cc1)=N[C@@H](CC(=O)N[C@H](C)c1cccc(OCCCNc3cccc4c3CN(C3CCC(=O)NC3=O)C4=O)c1)c1nnc(C)n1-2` (stereo partly drawn) [Compound 51, 2-[(9S)-7-(4-chlorophenyl)-4,5,13-trimethyl-3-thia-1,8,11,12-tetraazatricyclo [8.3.0.0^2,^6]trideca-2(6),4,7,10,12-pentaen-9-yl]-N-[(1R)-1-[3-(3-{[2-(2,6-dioxopiperidin-3-yl)-1-oxo-2,3-dihydro-1H-isoindol-4-yl]amino}propoxy)phenyl]ethyl] acetamide] the value was above 50 nM. For `Cc1sc2c(c1C)C(c1ccc(Cl)cc1)=N[C@@H](CC(=O)N[C@H]1CCN(C(=O)c3ccc(NCCNc4cccc5c4C(=O)N(C4CCC(=O)NC4=O)C5=O)cc3)C1)c1nnc(C)n1-2` (stereo partly drawn) [Compound 52, 2-[(9S)-7-(4-chlorophenyl)-4,5,13-trimethyl-3-thia-1,8,11,12-tetraazatricyclo [8.3.0.0^2,^6]trideca-2(6),4,7,10,12-pentaen-9-yl]-N-[(3S)-1-{4-[(2-{[2-(2,6-dioxopiperidin-3-yl)-1,3-dioxo-2,3-dihydro-1H-isoindol-4-yl]amino}ethyl)amino]benzoyl}pyrrolidin-3-yl]acetamide] the value was above 50 nM; for `Cc1sc2c(c1C)C(c1ccc(Cl)cc1)=N[C@@H](CC(=O)NCCOCCNc1cccc3nc(C)n(C4CCC(=O)NC4=O)c(=O)c13)c1nnc(C)n1-2` (stereo partly drawn) [Compound 53, 2-[(9S)-7-(4-chlorophenyl)-4,5,13-trimethyl-3-thia-1,8,11,12-tetraazatricyclo [8.3.0.0^2,^6]trideca-2(6),4,7,10,12-pentaen-9-yl]-N-[2-(2-{[3-(2,6-dioxopiperidin-3-yl)-2-methyl-4-oxo-3,4-dihydroquinazolin-5-yl]amino}ethoxy)ethyl]acetamide], above 50 nM; for `Cc1sc2c(c1C)C(c1ccc(Cl)cc1)=N[C@@H](CC(=O)NCCCOCCCNc1cccc3c1CN(C1CCC(=O)NC1=O)C3=O)c1nnc(C)n1-2` (stereo partly drawn) [Compound 54, 2-[(9S)-7-(4-chlorophenyl)-4,5,13-trimethyl-3-thia-1,8,11,12-tetraazatricyclo [8.3.0.0^2,^6]trideca-2(6),4,7,10,12-pentaen-9-yl]-N-[3-(3-{[2-(2,6-dioxopiperidin-3-yl)-1-oxo-2,3-dihydro-1H-isoindol-4-yl]amino}propoxy)propyl]acetamide], below 50 nM. Next, `Cc1sc2c(c1C)C(c1ccc(Cl)cc1)=N[C@@H](CC(=O)N[C@H]1CCN(C(=O)c3ccc(OCCNc4cccc5c4C(=O)N(C4CCC(=O)NC4=O)C5=O)cc3)C1)c1nnc(C)n1-2` (stereo partly drawn) [Compound 55, 2-[(9S)-7-(4-chlorophenyl)-4,5,13-trimethyl-3-thia-1,8,11,12-tetraazatricyclo [8.3.0.0^2,^6]trideca-2(6),4,7,10,12-pentaen-9-yl]-N-[(3S)-1-[4-(2-{[2-(2,6-dioxopiperidin-3-yl)-1,3-dioxo-2,3-dihydro-1H-isoindol-4-yl]amino}ethoxy)benzoyl]pyrrolidin-3-yl]acetamide]: below 50 nM; `Cc1sc2c(c1C)C(c1ccc(Cl)cc1)=N[C@@H](CC(=O)Nc1ccc(OCCOCCOCCNc3cccc4nc(C)n(C5CCC(=O)NC5=O)c(=O)c34)cc1)c1nnc(C)n1-2` (stereo partly drawn) [Compound 56, 2-[(9S)-7-(4-chlorophenyl)-4,5,13-trimethyl-3-thia-1,8,11,12-tetraazatricyclo [8.3.0.0^2,^6]trideca-2(6),4,7,10,12-pentaen-9-yl]-N-(4-{2-[2-(2-{[3-(2,6-dioxopiperidin-3-yl)-2-methyl-4-oxo-3,4-dihydroquinazolin-5-yl]amino}ethoxy)ethoxy]ethoxy}phenyl)acetamide]: below 50 nM. On to `Cc1sc2c(c1C)C(c1ccc(Cl)cc1)=N[C@@H](CC(=O)NCCCCCNc1cccc3c1CN(C1CCC(=O)NC1=O)C3=O)c1nnc(C)n1-2` (stereo partly drawn) [Compound 57, 2-[(9S)-7-(4-chlorophenyl)-4,5,13-trimethyl-3-thia-1,8,11,12-tetraazatricyclo [8.3.0.0^2,^6]trideca-2(6),4,7,10,12-pentaen-9-yl]-N-(5-{[2-(2,6-dioxopiperidin-3-yl)-1-oxo-2,3-dihydro-1H-isoindol-4-yl]amino}pentyl) acetamide], for which the IC50 was below 50 nM. `Cc1sc2c(c1C)C(c1ccc(Cl)cc1)=N[C@@H](CC(=O)NCCCOCCCNc1cccc3nc(C)n(C4CCC(=O)NC4=O)c(=O)c13)c1nnc(C)n1-2` (stereo partly drawn) [Compound 58, 2-[(9S)-7-(4-chlorophenyl)-4,5,13-trimethyl-3-thia-1,8,11,12-tetraazatricyclo [8.3.0.0^2,^6]trideca-2(6),4,7,10,12-pentaen-9-yl]-N-[3-(3-{[3-(2,6-dioxopiperidin-3-yl)-2-methyl-4-oxo-3,4-dihydroquinazolin-5-yl]amino}propoxy)propyl]acetamide]: the IC50 was above 50 nM. In the case of `Cc1sc2c(c1C)C(c1ccc(Cl)cc1)=N[C@@H](CC(=O)N[C@H]1CCN(C(=O)c3ccc(OCCNc4cccc5c4CN(C4CCC(=O)NC4=O)C5=O)cc3)C1)c1nnc(C)n1-2` (stereo partly drawn) [Compound 59, 2-[(9S)-7-(4-chlorophenyl)-4,5,13-trimethyl-3-thia-1,8,11,12-tetraazatricyclo [8.3.0.0^2,^6]trideca-2(6),4,7,10,12-pentaen-9-yl]-N-[(3S)-1-[4-(2-{[2-(2,6-dioxopiperidin-3-yl)-1-oxo-2,3-dihydro-1H-isoindol-4-yl]amino}ethoxy)benzoyl]pyrrolidin-3-yl]acetamide], the IC50 was above 50 nM. For `Cc1sc2c(c1C)C(c1ccc(Cl)cc1)=N[C@@H](CC(=O)N[C@H](C)c1cccc(OCCNc3cccc4c3CN(C3CCC(=O)NC3=O)C4=O)c1)c1nnc(C)n1-2` (stereo partly drawn) [Compound 60, 2-[(9S)-7-(4-chlorophenyl)-4,5,13-trimethyl-3-thia-1,8,11,12-tetraazatricyclo [8.3.0.0^2,^6]trideca-2(6),4,7,10,12-pentaen-9-yl]-N-[(1R)-1-[3-(2-{[2-(2,6-dioxopiperidin-3-yl)-1-oxo-2,3-dihydro-1H-isoindol-4-yl]amino}ethoxy)phenyl]ethyl] acetamide] the value was above 50 nM.
